Where two headings read alike, the source gives them in different places.
Key:
Escherichia coli = test: Inhibitory effect on bacteria (colony counting), under light and in the dark; type: cell-based; settings: 60 mM
Method: A single Escherichia coli colony was transferred from a solid Luria Bertani (LB) agar plate to 5 ml liquid LB medium and incubated at 37° C. for 12 h. Bacteria were collected by centrifugation (7000 rpm, 1 min) and washed with PBS buffer three times. The supernatant was discarded, and the remaining Escherichia coli cells were resuspended in the PBS buffer. The bacterial suspension was adjusted to make its optical density (OD600) to 1.0. The suspension was then diluted (5 times) with PBS buffer. The diluted Escherichia coli cell suspension was incubated in the dark at 37° C. for 15 min in the presence of a photosensitizer (diketone compound) solution with a concentration of 60 mM, and then irradiated for 200 s under a 15 mW/cm^2 laser light (with a wavelength of 450 nm to 480 nm and in the final light dose of about 3 J cm^2), and after the irradiation the bacterial suspension was serially diluted (10^4 times) with PBS buffer. 100 μL of the diluted bacterial Escherichia coli cell was dispersed on a solid LB agar plate and incubated at 37° C. for 12 h to 16 h, and colonies formed were counted. In the meanwhile, a treated group in the dark and an untreated group in the dark were set; the inhibition rate was determined by dividing the number of colony forming units (cfu) killed in the treated group under light or the treated group in the dark by the number of colony forming units (cfu) killed in the untreated group in the dark.

[1] = tested on: 4T1 cells (breast cancer cells in mice); test: Photodynamic therapy of tumors in mice (tumor size, tumor weight, B cells in tumor tissue); type: in vivo, BALB/C mice; settings: 14 days after treatment
Method: 1. Photodynamic therapy experiments on tumors were carried out by using BJMU-204 as a photosensitizer and BALB/C mice as experimental animals. Modeling mode: BALB/C mice were divided into 5 groups in total, 11-12 mice in each group. 4T1 cells (breast cancer cells in mice) were resuscitated and subcultured to a better cell state for tumorigenesis inoculation. BALB/C mice were locally depilated and disinfected, and tumor cells were injected into the mouse mammary fat pad in situ. Tumors were formed within 7 to 10 days. […] [table] 2. Mice in each experimental group were subjected to blood collection for serum separation and necropsy, and tumors were taken out and measured to obtain their wet weights; tumor tissues were fixed, pathological examinations were performed, and H. E. staining was used to observe the changes of tumors of the mice under an optical microscope; blood routine indicators (including white blood cell count (WBC), red blood cell count (RBC), lymphocyte count (LY), platelet count (PLT) and many other blood routine indicators) and blood biochemical indicators (including routine blood biochemical indicators) were tested and analyzed in the Laboratory of Peking University Third Hospital. 3. Tumors were taken out of mice in each experimental group, a piece of tumor tissue about 1 cm*1 cm*0.5 cm in size was cut up and placed in a 10 ml EP tube. 5 ml of pancreatin was added for digestion. 30 min later, the digestion was ended. The digestion solution and the tumor tissue were sieved through a single cell sieve to obtain a tumor tissue single-cell suspension. B220 antibody (for flow cytometry) was added to the suspension and the resulting solution was stained with a PI staining solution; 30 min later, the staining was ended and the staining solution was removed; next, re-suspending was carried out with a PBS solution for test with a flow cytometry.

Hela cells = test: MTT toxicity to tumor cells, under light and in the dark; type: cell-based; settings: Homo sapiens, under light, 450-480 nm laser, 110 mW/cm^2, 900 s
Method: In this experimental example, the toxicity of the compound to tumor cells was tested by an MTT method including the following specific steps.
(1) Logarithmic cells were collected, the concentration of a cell suspension was adjusted, the cell suspension was added to a cell culture plate in a dose of 100 μL per well, and the cells were then added to a cell culture plate so that the density of the cells to be tested was adjusted to 1000-10000 wells (edge wells were filled with sterile PBS).
(2) The cells were incubated at 37° C. in the presence of 5% CO2 until the cells in a single layer covered the bottom of each well (96-well flat-bottom plate), and a drug in concentration gradients was added. Generally, the drug in 5 to 7 gradients was added in a dose of 100 μL per well, and 3 to 5 multi-wells were set.
(3) The cells were randomly divided into treated groups under light and treated groups in the dark, incubated at 37° C. in the presence of 5% CO2 for 16 h to 48 h, and observed with an inverted microscope.
(4) The cells were irradiated for 900 s with a laser having a wavelength of 450 nm to 480 nm (at an intensity of 110 mW/cm^2), and the final light dose was about 100 J/cm^2. After light irradiation, the cells were washed with PBS.
(5) An MTT solution (5 mg/ml, 0.5% MTT) was added in a dose of 20 μL per well to further incubate the cells for 4 h. If the drug could react with the MTT, centrifuging was carried out first, and then the culture solution was discarded and the cells were carefully washed twice or three times with PBS, and then the culture solution containing MTT was added.
(6) The culture was terminated and the culture solution in the wells was carefully removed.
(7) Dimethyl sulfoxide was added in a dose of 150 μL per well, and the plate was then shaken on a shaker at a low speed for 10 min to fully dissolve crystals. The absorbance at OD 490 nm of each well was measured with enzyme-linked immunoassay.
(8) Zero adjustment wells (medium, MTT, dimethyl sulfoxide) and control wells (cells, dissolving media of the same concentration, culture solution, MTT, dimethyl sulfoxide) were set at the same time.

[2] = tested on: human immortalized keratinocyte (Hacat cells); test: MTT cytotoxicity to normal cells, Experimental Example 5; type: cell-based
Method: (§1) (1) Logarithmic phase cells were collected, the concentration of a cell suspension was adjusted, the cell suspension was added to a cell culture plate in a dose of 100 μL per well, and the cells were then added to a cell culture plate so that the density of the cells to be tested was adjusted to 1000-10000 wells (edge wells were filled with sterile PBS). […] Generally, the drug in 5 to 7 gradients was added in a dose of 100 μL per well, and 3 to 5 wells were set for each concentration of a drug. […] Cells in the experimental photosensitizer-light irradiation group were incubated for 15 min and then irradiated with light. […] After light irradiation, the cells were washed with PBS. […] After light irradiation, the cells were washed with PBS. […] If the drug could react with the MTT, centrifuging was carried out first, and then the culture solution was discarded and the cells were carefully washed twice or three times with PBS, and then the culture solution containing MTT was added. (6) The culture was terminated and the culture solution in the wells was carefully removed. (7) Dimethyl sulfoxide was added in a dose of 150 μL per well, and the plate was then shaken on a shaker at a low speed for 10 min to fully dissolve crystals. The absorbance at OD 490 nm of each well was measured with enzyme-linked immunoassay. […]

[3] = tested on: human cervical cancer Hela cells; test: MTT cytotoxicity, Experimental Example 5; type: cell-based
Method: as §1

Compound: CC(=O)C(C)=O [BJMU-204]
- inhibition at 60000 µM (Escherichia coli; 450-480 nm laser, 15 mW/cm^2, 200 s, read-out: Inhibition rate under light): 96%
- inhibition at 60000 µM (Escherichia coli; in the dark, read-out: Inhibition rate in the dark): 10.3%
- number of B cells in tumor tissues ([1]; 3% (p<0.001) and 0.5% (p<0.01) intratumoral + light vs control): increases significantly
- weight changes of tumor tissues ([1]; 3% and 0.5% intratumoral + light, both p<0.001 vs control, better at high concentration): obvious growth inhibition effect
- size changes of tumor tissues ([1]; 3% and 0.5% intratumoral + light, both p<0.001 vs control, more prominent at high concentration): controlled and decreased
- IC50 (Hela cells): 600 ± 20 nM
- cytotoxicity to Hacat cells [2]: relatively low cytotoxicity
- cytotoxicity to Hela cells ([3]; given in the dark): relatively low cytotoxicity
- cytotoxicity to Hela cells ([3]; given under blue light, 450-480 nm, 110 mW/cm^2, 900 s): relatively high cytotoxicity

Source: patent US20220257764A1, “USE OF DIKETONE COMPOUND IN PHOTODYNAMIC THERAPY OR DIAGNOSIS” (BEIJING WHOLESOMETECH CO., LTD., priority 2019, published 2022)
